Assay results published in ChEMBL document CHEMBL5370574, “Discovery and Characterization of Moracin C as an Anti-Gouty Arthritis/Hyperuricemia Candidate by Docking-Based Virtual Screening and Pharmacological Evaluation” (J Nat Prod, 2023).
Values belong to the molecule of their own block, whether it stands above or below them. The source made the active and inactive calls. The calls are words filed in the database; no cut-off is given here.

Tests used:
[1] = molecular target: T1, Xanthine dehydrogenase/oxidase (Homo sapiens, UniProt P47989); test: Inhibition of XOD (unknown origin) using xanthine as substrate at 1 uM preincubated for 30 mins followed by xanthine addition measured after 30 mins by microplate reader relative to control; settings: 0.5 h, time 60 min
[2] = molecular target: T1, Xanthine dehydrogenase/oxidase; test: Inhibition of XOD (unknown origin) using xanthine as substrate preincubated for 30 mins followed by xanthine addition measured after 30 mins by microplate reader
[3] = system: Rattus norvegicus; test: Antiarthritic activity against MSU-induced Sprague-Dawley rat OA model assessed as inflammation index at 10 mg/kg, ig administered for 3 days; assay type: functional; settings: time 3 day
[4] = system: Rattus norvegicus; test: Antiarthritic activity against MSU-induced Sprague-Dawley rat OA model assessed as reduction of serum TNF-alpha protein expression level at 5 to 20 mg/kg, ig administered for 3 days by ELISA; assay type: functional, organism-based; settings: dose 5-20 mg/kg, time 3.0 day
[5] = system: Rattus norvegicus; test: Antiarthritic activity against MSU-induced Sprague-Dawley rat OA model assessed as reduction in NLRP3 mRNA expression level in tissue joint at 5 to 20 mg/kg, ig administered for 3 days by qRT-PCR analysis; assay type: functional, organism-based; settings: dose 5-20 mg/kg, time 3.0 day
[6] = system: Rattus norvegicus; test: Antiarthritic activity against MSU-induced Sprague-Dawley rat OA model assessed as inflammation index at 5 mg/kg, ig administered for 3 days; assay type: functional; settings: time 3 day
[7] = system: Mus musculus; test: Hypouricemic activity in hypoxanthine/potassium oxonate-induced hyperuricemic Kunming mouse model assessed as decrease in serum uric acid level at 5 to 20 mg/kg, po administered for 7 days measured 4 hrs post last dose by biochemical analyzer; assay type: functional, organism-based; settings: dose 5-20 mg/kg, time 7.0 day
[8] = system: RAW264.7; test: Antiinflammatory activity in MSU-induced mouse RAW264.7 cells assessed as decrease in TNF-alpha expression preincubated for 2 hrs followed by MSU stimulation and measured after 12 hrs by ELISA; assay type: functional, cell-based; settings: dose 1-10 µM, time 14.0 hrs
[9] = system: Rattus norvegicus; test: Antiarthritic activity against MSU-induced Sprague-Dawley rat OA model assessed as inflammation index at 20 mg/kg, ig administered for 3 days; assay type: functional; settings: time 3 day
[10] = system: Rattus norvegicus; test: Antiarthritic activity against MSU-induced Sprague-Dawley rat OA model assessed as dysfunction index at 5 mg/kg, ig administered for 3 days; assay type: functional; settings: time 3 day
[11] = system: Mus musculus; test: Hypouricemic activity in hypoxanthine/potassium oxonate-induced hyperuricemic Kunming mouse model assessed as decrease in serum XOD level at 5 to 20 mg/kg, po administered for 7 days measured 4 hrs post last dose by automatic biochemical analyzer; assay type: functional, organism-based; settings: dose 5-20 mg/kg, time 7.0 day
[12] = system: Rattus norvegicus; test: Antiarthritic activity against MSU-induced Sprague-Dawley rat OA model assessed as dysfunction index at 10 mg/kg, ig administered for 3 days; assay type: functional; settings: time 3 day
[13] = system: Rattus norvegicus; test: Antiarthritic activity against MSU-induced Sprague-Dawley rat OA model assessed as toe swelling volume variation at 10 mg/kg, ig administered for 3 days; assay type: functional; settings: time 3 day
[14] = molecular target: T2, Solute carrier family 2, facilitated glucose transporter member 9 (Homo sapiens) (UniProt Q9NRM0); test: Inhibition of GLUT9 (unknown origin) expressed in HEK293T cells assessed as effect on uric acid induced current at 10 uM; assay type: cell-based
T2 sequence (whole entry): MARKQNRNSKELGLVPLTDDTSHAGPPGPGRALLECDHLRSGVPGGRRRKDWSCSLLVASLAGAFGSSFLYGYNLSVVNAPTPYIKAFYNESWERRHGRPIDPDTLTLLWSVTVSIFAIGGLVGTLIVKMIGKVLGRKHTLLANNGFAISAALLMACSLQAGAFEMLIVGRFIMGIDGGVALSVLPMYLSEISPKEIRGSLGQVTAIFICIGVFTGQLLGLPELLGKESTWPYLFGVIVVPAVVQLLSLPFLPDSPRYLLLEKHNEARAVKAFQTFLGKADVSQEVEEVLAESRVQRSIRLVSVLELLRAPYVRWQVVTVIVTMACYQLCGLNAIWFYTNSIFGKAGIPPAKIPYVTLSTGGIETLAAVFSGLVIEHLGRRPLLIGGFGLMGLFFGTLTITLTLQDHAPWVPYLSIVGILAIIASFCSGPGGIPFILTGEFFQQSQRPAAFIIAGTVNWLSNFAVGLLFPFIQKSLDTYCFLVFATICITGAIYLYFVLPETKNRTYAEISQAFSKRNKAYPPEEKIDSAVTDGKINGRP

[15] = system: Rattus norvegicus; test: Antiarthritic activity against MSU-induced Sprague-Dawley rat OA model assessed as inflammation index at 1 mg/kg, ig administered for 3 days; assay type: functional, organism-based; settings: time 3.0 day
[16] = system: Rattus norvegicus; test: Antiarthritic activity against MSU-induced Sprague-Dawley rat OA model assessed as toe swelling volume variation at 5 mg/kg, ig administered for 3 days; assay type: functional; settings: time 3 day
[17] = system: Rattus norvegicus; test: Antiarthritic activity against MSU-induced Sprague-Dawley rat OA model assessed as reduction in caspase-1 mRNA expression level in tissue joint at 5 to 20 mg/kg, ig administered for 3 days by qRT-PCR analysis; assay type: functional, organism-based; settings: dose 5-20 mg/kg, time 3.0 day
[18] = system: Rattus norvegicus; test: Antiarthritic activity against MSU-induced Sprague-Dawley rat OA model assessed as dysfunction index at 20 mg/kg, ig administered for 3 days; assay type: functional; settings: time 3 day
[19] = system: Rattus norvegicus; test: Antiarthritic activity against MSU-induced Sprague-Dawley rat OA model assessed as toe swelling volume variation at 1 mg/kg, ig administered for 3 days; assay type: functional, organism-based; settings: time 3.0 day
[20] = system: Mus musculus; test: Hypouricemic activity in hypoxanthine/potassium oxonate-induced hyperuricemic Kunming mouse model assessed as decrease in uric acid level in urine at 5 to 20 mg/kg, po administered for 7 days measured 4 hrs post last dose by automatic biochemical analyzer; assay type: functional, organism-based; settings: dose 5-20 mg/kg, time 7.0 day
[21] = system: Rattus norvegicus; test: Antiarthritic activity against MSU-induced Sprague-Dawley rat OA model assessed as reduction in ASC mRNA expression level in tissue joint at 5 to 20 mg/kg, ig administered for 3 days by qRT-PCR analysis; assay type: functional, organism-based; settings: dose 5-20 mg/kg, time 3.0 day
[22] = system: RAW264.7; test: Antiinflammatory activity in MSU-induced mouse RAW264.7 cells assessed as decrease in IL-1beta mRNA expression at 1 to 10 uM preincubated for 2 hrs followed by MSU stimulation and measured after 12 hrs by qRT-PCR analysis; assay type: functional, cell-based; settings: dose 1-10 µM, time 14.0 hrs
[23] = system: Rattus norvegicus; test: Antiarthritic activity against MSU-induced Sprague-Dawley rat OA model assessed as toe swelling volume variation at 20 mg/kg, ig administered for 3 days; assay type: functional; settings: time 3 day
[24] = system: Rattus norvegicus; test: Antiarthritic activity against MSU-induced Sprague-Dawley rat OA model assessed as dysfunction index at 1 mg/kg, ig administered for 3 days; assay type: functional, organism-based; settings: time 3.0 day
[25] = system: Mus musculus; test: Hypouricemic activity in hypoxanthine/potassium oxonate-induced hyperuricemic Kunming mouse model assessed as decrease in liver XOD level at 5 to 20 mg/kg, po administered for 7 days measured 4 hrs post last dose by automatic biochemical analyzer; assay type: functional, organism-based; settings: dose 5-20 mg/kg, time 7.0 day
[26] = system: Rattus norvegicus; test: Antiarthritic activity against MSU-induced Sprague-Dawley rat OA model assessed as reduction of serum IL-1beta protein expression level at 10 mg/kg, ig administered for 3 days by ELISA; assay type: functional, organism-based; settings: time 3.0 day
[27] = system: RAW264.7; test: Antiinflammatory activity in MSU-induced mouse RAW264.7 cells assessed as decrease in TNF-alpha mRNA expression at 1 to 10 uM preincubated for 2 hrs followed by MSU stimulation and measured after 12 hrs by qRT-PCR analysis; assay type: functional, cell-based; settings: dose 1-10 µM, time 14.0 hrs
[28] = system: Rattus norvegicus; test: Antiarthritic activity against MSU-induced Sprague-Dawley rat OA model assessed as reduction of serum IL-1beta protein expression level at 5 to 20 mg/kg, ig administered for 3 days by ELISA; assay type: functional, organism-based; settings: dose 5-20 mg/kg, time 3.0 day
[29] = system: RAW264.7; test: Antiinflammatory activity in MSU-induced mouse RAW264.7 cells assessed as decrease in IL-1beta expression preincubated for 2 hrs followed by MSU stimulation and measured after 12 hrs by ELISA; assay type: functional, cell-based; settings: dose 1-10 µM, time 14.0 hrs
[30] = molecular target: T3, Solute carrier family 22 member 12 (Homo sapiens, UniProt Q96S37); test: Inhibition of URAT1 (unknown origin) expressed in HEK293T cells assessed as reduction in 14C-uric acid uptake at 10 uM; assay type: cell-based
T3 sequence (Q96S37 whole entry): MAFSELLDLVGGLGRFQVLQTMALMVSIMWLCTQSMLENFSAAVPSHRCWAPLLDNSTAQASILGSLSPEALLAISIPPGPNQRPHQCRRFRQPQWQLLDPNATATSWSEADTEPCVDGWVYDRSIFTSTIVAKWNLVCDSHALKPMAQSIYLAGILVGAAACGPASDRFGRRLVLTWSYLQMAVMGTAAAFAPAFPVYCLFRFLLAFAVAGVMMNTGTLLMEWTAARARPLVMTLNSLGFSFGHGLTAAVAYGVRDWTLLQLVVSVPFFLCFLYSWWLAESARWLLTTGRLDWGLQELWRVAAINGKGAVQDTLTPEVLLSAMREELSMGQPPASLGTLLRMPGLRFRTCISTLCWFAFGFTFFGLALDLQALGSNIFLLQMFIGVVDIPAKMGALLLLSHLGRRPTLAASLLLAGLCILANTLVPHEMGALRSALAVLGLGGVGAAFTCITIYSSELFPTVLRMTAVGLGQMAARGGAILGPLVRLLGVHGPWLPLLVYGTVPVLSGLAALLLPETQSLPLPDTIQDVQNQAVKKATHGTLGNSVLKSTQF

[31] = molecular target: T1, Xanthine dehydrogenase/oxidase; test: Inhibition of XOD (unknown origin)
[32] = molecular target: T3, Solute carrier family 22 member 12; test: Inhibition of URAT1(unknown origin)

T1 sequence (P47989 whole entry): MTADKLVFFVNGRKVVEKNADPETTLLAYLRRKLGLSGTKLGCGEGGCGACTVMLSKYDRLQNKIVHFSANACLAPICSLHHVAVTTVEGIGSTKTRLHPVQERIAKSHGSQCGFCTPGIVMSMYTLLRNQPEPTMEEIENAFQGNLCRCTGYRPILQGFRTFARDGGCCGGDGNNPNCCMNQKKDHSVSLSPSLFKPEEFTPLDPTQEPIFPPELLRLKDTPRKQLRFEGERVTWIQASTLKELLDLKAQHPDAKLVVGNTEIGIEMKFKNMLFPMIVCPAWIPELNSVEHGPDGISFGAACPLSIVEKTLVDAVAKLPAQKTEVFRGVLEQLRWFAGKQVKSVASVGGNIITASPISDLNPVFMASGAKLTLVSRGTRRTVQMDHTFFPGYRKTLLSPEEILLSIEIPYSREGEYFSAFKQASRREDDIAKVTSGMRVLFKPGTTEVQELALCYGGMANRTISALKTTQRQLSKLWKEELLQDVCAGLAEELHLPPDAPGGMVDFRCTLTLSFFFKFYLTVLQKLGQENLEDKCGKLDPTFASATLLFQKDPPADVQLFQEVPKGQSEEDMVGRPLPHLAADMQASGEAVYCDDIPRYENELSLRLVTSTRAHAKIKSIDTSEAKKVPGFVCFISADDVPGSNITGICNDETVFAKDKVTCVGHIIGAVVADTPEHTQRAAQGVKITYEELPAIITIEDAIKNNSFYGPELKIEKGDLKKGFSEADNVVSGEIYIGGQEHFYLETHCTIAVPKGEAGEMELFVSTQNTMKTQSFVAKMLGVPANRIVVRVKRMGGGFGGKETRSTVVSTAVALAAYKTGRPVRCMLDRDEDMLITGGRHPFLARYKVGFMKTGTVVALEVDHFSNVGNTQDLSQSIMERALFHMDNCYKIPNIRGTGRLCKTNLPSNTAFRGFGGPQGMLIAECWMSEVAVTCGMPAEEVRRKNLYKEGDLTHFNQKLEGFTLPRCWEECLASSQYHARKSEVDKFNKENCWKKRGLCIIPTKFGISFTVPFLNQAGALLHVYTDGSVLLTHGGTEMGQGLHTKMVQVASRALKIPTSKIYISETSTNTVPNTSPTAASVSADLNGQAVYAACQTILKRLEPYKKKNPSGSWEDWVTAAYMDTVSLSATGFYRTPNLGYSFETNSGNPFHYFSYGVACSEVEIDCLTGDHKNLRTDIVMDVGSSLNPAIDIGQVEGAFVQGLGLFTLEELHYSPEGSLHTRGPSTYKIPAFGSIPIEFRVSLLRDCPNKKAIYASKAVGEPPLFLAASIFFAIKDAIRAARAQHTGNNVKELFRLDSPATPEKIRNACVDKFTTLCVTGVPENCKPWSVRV

Structure (SMILES): CC(C)=CCc1c(O)cc(-c2cc3ccc(O)cc3o2)cc1O [MORACIN C]
- Activity_index [3]: 1
- Activity [4]: Active
- inhibition at 1 µM [1]: 70%
- Activity [5]: Active
- Activity_index [6]: 1
- Activity [7]: Active
- Activity [8]: Dose-Dependent Effect
- Activity_index [9]: 0.6
- Activity_index [10]: 0
- Activity [11]: Active
- IC50 [2]: 0.25 µM
- Activity_index [12]: 0
- Activity [13]: 0.1 mL
- inhibition [14]: inactive
- Activity [15]: Active
- Activity [16]: 0.16 mL
- Activity [17]: Active
- Activity_index [18]: 0
- Activity [19]: Active
- Activity [20]: inactive
- Activity [21]: Active
- Activity [22]: Active
- Activity [23]: 0.06 mL
- Activity [24]: Active
- Activity [25]: Active
- Activity [26]: Active
- Activity [27]: Active
- Activity [28]: Active
- Activity [29]: Dose-Dependent Effect
- inhibition (INH) [30]: Not Active

Structure (SMILES): CC1(C)C=Cc2c(O)cc(-c3cc4ccc(O)cc4o3)cc2O1 [MORACIN D]
- inhibition at 1 µM [1]: 32%
- IC50 [2]: 5.1 µM

Structure (SMILES): O=c1c(O)c(-c2ccc(O)cc2O)oc2cc(O)cc(O)c12 [MORIN]
- IC50 [31]: 25 µM
- Ki [32]: 2 µM

Second part, the molecule after the results:

- inhibition at 1 µM [1]: 25%
- IC50 [2]: 13 µM
Structure (SMILES): COc1ccc2c(=O)c(-c3ccc(O)cc3)coc2c1 [ISOFORMONENTIN]

- inhibition at 1 µM [1]: < 20%
Structure (SMILES): CC1(C)C=Cc2c(ccc3c2O[C@H]2c4ccc(O)cc4OC[C@@H]32)O1 [PHASEOLIN]

- inhibition at 1 µM [1]: < 20%
Structure (SMILES): COc1ccc(-c2cc(=O)c3c(O)c(OC)c(OC)cc3o2)cc1 [SALVIGENIN]
